The record followed here is US8399459B2, “1,4 oxazines as BACE1 and/or BACE2 inhibitors” (Hoffmann-La Roche Inc., priority 2011, dated 2013).

One assay has as its target T1, BACE1 (Homo sapiens, UniProt P56817).
T1 construct: Human HEK293 cells which are stably transfected with a vector expressing a cDNA of the human APP wt gene (APP695); endogenous in cells; host or cells: HEK293 (human), stably transfected with human APP695 wt only
In words: Cellular Aβ-lowering assay (Aβ40 ELISA, HEK293 cells expressing human APP695). Type of assay: cell-based. The settings on record: HEK293 cells stably expressing human APP695; Aβ40 in supernatant after 18-20 hrs. As to the method: Cellular Aβ-Lowering Assay:
Human HEK293 cells which are stably transfected with a vector expressing a cDNA of the human APP wt gene (APP695) were used to assess the potency of the compounds in a cellular assay. The cells were seeded in 96-well microtiter plates in cell culture medium (Iscove, plus 10% (v/v) fetal bovine serum, glutamine, penicillin/streptomycin) to about 80% confluence and the compounds were added at a 10× concentration in 1/10 volume of medium without FCS containing 8% DMSO (final concentration of DMSO was kept at 0.8% v/v). After 18-20 hrs incubation at 37° C. and 5% CO2 in a humidified incubator the culture supernatant was harvested for the determination of Aβ40 concentrations. 96well ELISA plates (e.g., Nunc MaxiSorb) were coated with monoclonal antibody which specifically recognize the C-terminal end of Aβ40 (Brockhaus et al., NeuroReport 9, 1481-1486; 1998). After blocking of non-specific binding sites with e.g. 1% BSA and washing, the culture supernatants were added in suitable dilutions together with a horseradish peroxidase-coupled Aβ detection antibody (e.g., antibody 4G8, Senetek, Maryland Heights, Mo.) and incubated for 5 to 7 hrs. Subsequently the wells of the microtiter plate were washed extensively with Tris-buffered saline containing 0.05% Tween 20 and the assay was developed with tetramethylbenzidine/H2O2 in citric acid buffer. After stopping the reaction with one volume 1 N H2SO4 the reaction was measured in an ELISA reader at 450 nm wavelength. The concentrations of Aβ in the culture supernatants were calculated from a standard curve obtained with known amounts of pure Aβ peptide.

The target in assay [1] is T2, recombinant human cathepsin E (Homo sapiens, UniProt P14091).
T2 construct: purchased R&D Systems
T2 sequence (P14091 54-396): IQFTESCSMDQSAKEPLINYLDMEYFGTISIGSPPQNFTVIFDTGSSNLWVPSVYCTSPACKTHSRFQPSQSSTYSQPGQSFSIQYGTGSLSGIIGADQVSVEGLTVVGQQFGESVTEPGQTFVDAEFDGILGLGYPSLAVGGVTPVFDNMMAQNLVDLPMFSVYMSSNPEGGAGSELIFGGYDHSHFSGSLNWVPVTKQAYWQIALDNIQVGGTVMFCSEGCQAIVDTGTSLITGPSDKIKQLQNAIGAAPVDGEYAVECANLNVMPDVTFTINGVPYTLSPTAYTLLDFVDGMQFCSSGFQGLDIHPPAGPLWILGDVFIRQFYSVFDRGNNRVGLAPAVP
The assay can be described thus: Cathepsin E fluorescent substrate kinetic assay. It counts as biochemical. The settings on record: pH 4.5, substrate MR121-[…]. The source says:
(§1) Cathepsin D and Cathepsin E Fluorescent Substrate Kinetic Assays
(§2) The MR121 fluorescence assays described below are based on the fact that MR121 forms a non-fluorescent ground state complex with tryptophan. In solution this formation occurs at millimolar concentrations of tryptophan. The mechanism can be used to design a generic biochemical assay for proteases. A substrate peptide is labeled at the N-terminus with tryptophan and at the C-terminus with the fluorophore MR121 (for cathepsin D the 10 amino acid peptide […]-MR121 was used; for cathepsin E, MR121-[…] was used). In absence of protease activity, the substrates remain intact and the MR121 fluorescence is reduced by the high local Trp-concentration. If the substrates are cleaved by the enzymes the MR121 fluorescence is recovered.
(§3) The fluorescent substrate cathepsin D and cathepsin E kinetic assays were performed at room temperature in 384-well microtiter plates (black with clear flat bottom, non binding surface plates from Corning) in a final volume of 51 μl. […] The enzymatic reaction was followed in a plate: vision reader (Perkin Elmer) (excitation wavelength: 630 nm; emission: 695 nm) for at least 30 minutes in a kinetic measurement detecting an increase of MR121 fluorescence during the reaction time. […]

For assay [2], the target named is T3, cathepsin D (from human liver) (Homo sapiens, UniProt P07339).
T3 construct: cathepsin D (from human liver, Calbiochem); purchased Calbiochem; host or cells: purified from human liver
T3 sequence (P07339 65-162 limits assumed): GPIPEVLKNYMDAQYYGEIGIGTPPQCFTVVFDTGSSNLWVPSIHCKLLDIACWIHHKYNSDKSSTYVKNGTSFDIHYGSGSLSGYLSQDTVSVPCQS
T3 sequence (P07339 169-412 limits assumed): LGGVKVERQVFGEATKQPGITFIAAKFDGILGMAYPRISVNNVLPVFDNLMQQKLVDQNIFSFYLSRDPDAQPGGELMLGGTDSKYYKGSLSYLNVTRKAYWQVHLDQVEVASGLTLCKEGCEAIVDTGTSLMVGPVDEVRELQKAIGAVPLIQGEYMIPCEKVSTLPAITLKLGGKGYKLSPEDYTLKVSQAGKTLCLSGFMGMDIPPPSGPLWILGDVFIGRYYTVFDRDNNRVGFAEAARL
The assay can be described thus: Cathepsin D fluorescent substrate kinetic assay. The settings on record: pH 5.5, substrate […]-MR121. It counts as biochemical.
Text: as §1, §2, §3

Broadly, the IC50 is the concentration that gives 50% inhibition.

Structures are written as SMILES.

T1 sequence (P56817 46-501): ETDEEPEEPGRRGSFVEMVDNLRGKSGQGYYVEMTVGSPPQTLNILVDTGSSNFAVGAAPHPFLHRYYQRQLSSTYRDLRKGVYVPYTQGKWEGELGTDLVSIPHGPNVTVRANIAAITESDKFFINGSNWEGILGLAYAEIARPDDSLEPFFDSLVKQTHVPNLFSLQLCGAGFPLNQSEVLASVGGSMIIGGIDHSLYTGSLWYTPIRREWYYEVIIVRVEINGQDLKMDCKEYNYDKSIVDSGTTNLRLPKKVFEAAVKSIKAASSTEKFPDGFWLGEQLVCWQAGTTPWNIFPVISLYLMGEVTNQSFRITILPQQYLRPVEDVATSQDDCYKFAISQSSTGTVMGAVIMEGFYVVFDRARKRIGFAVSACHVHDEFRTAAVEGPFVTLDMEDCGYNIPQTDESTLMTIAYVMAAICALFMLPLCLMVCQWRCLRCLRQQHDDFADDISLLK

For `CC1(c2cccc(-c3cc(Cl)cc(Cl)c3)c2)COCC(N)=N1` (stereo not drawn) [Example 32, 5-(3′,5′-Dichloro-biphenyl-3-yl)-5-methyl-5,6-dihydro-2H-[1,4]oxazin-3-ylamine], the IC50 came to 1.53 µM against BACE1, 3.8 µM in assay [1] and 2.8 µM in assay [2].

For the compound `CC1(c2cc(-c3cncnc3)ccc2F)COCC(N)=N1` (stereo not drawn) [Example 36, 5-(2-Fluoro-5-pyrimidin-5-yl-phenyl)-5-methyl-5,6-dihydro-2H-[1,4]oxazin-3-ylamine], the results for the IC50 (against BACE1; in assay [1]; in assay [2]) were 0.98 µM, 13 µM and 34 µM, respectively.
